The NIST ThermoML archive (doi:10.1021/je901065e)
± gives the expanded uncertainty stated by the source.

Conditions: 298.15 K; 101.33 kPa; Liquid
c1ccccc1 [benzene] showed a mass density of 873.4 ± 0.5 kg/m3. CCCC[n+]1ccc(C)cc1.F[B-](F)(F)F [1-butyl-4-methylpyridinium tetrafluoroborate] showed a mass density of 1183.1 ± 0.9 kg/m3. In the case of Cc1ccccc1 [toluene], the mass density is reported as 862.27 ± 0.53 kg/m3. In the case of CCCC[n+]1ccccc1.F[B-](F)(F)F [1-butylpyridinium tetrafluoroborate], the mass density is reported as 1214 ± 1 kg/m3. Compound CCCCCC[n+]1ccccc1.F[B-](F)(F)F [1-hexylpyridinium tetrafluoroborate] has a mass density of 1154.8 ± 0.8 kg/m3. For CCCC[n+]1ccccc1C.F[B-](F)(F)F [1-butyl-2-methylpyridinium tetrafluoroborate], the mass density was 1202.5 ± 1 kg/m3.
